Results: US6548511B1, “Insecticidal/acaricidal agents” (Sagami Chemical Research Center, priority 1997, dated 2003)

Key:
diamondback moth larvae = assay: Insecticidal effect on diamondback moth larvae; type: in vivo; details: 500 ppm, wettable powder, cabbage leaf disc soaked, 3rd instar larvae, 4 days after release
Experimental: A disc of cabbage leaf (6 cm in diameter) was cut out and soaked for 1 minute in a water-diluted solution of the insecticide of the present invention (wettable powder) produced in accordance with the method of Formulation Example 1. After the soaking, the disc was air-dried and set in a plastic cup (7 cm in inner diameter), and 5 diamondback moth larvae of 3rd instar were released therein (one concentration, two repetition). After 4 days of the release of larvae, mortality and agony of the larvae were examined, and insecticidal ratio (%) was calculated by defining the larvae in agony as ½ dead larvae.

common cutworm larvae = assay: Insecticidal effect on common cutworm larvae; type: in vivo; details: 500 ppm, wettable powder, cabbage leaf disc soaked, 3rd instar larvae, 25° C., 5 days
Experimental: A disc of cabbage leaf (6 cm in diameter) was cut out and soaked for 1 minute in a water-diluted solution of the insecticide of the present invention (wettable powder) produced in accordance with the method of Formulation Example 1. After the soaking, the leaf disc was air-dried and set in a plastic cup (7 cm in inner diameter), and 5 common cutworm larvae of 3rd instar were released therein (one concentration, two repetition). The thus released larvae were kept in a constant temperature chamber at 25° C., mortality and agony of the larvae were examined 5 days thereafter, and insecticidal ratio (%) was calculated by defining the larva in agony as ½ dead larvae.

[1] = test system: two-spotted spider mite female imagoes; assay: Acaricidal effect on two-spotted spider mite imagoes; type: in vivo; details: 500 ppm, wettable powder sprayed on kidney bean leaf disc, 24 hours after treatment
Experimental: A total of 10 two-spotted spider mite female imagoes were released on a disc cut out from a kidney bean leaf (3 cm in diameter). The acaricide of the present invention (wettable powder) produced in accordance with the method of Formulation Example 1 was diluted with water to a predetermined concentration, and the solution (3.5 ml) was applied on the just described cut leaf (one concentration, two repetition) using a rotary sprayer (manufactured by Mizuho Rika). After 24 hours of the treatment, mortality of the imagoes was examined to calculate acaricidal ratio (%).

[2] = test system: two-spotted spider mite eggs; assay: Acaricidal effect on two-spotted spider mite eggs; type: in vivo; details: 500 ppm, wettable powder sprayed on kidney bean leaf disc, egg-killing ratio 8 days after treatment
Experimental: A total of 5 two-spotted spider mite female imagoes were released on a disc cut out from a kidney bean leaf (3 cm in diameter). The thus released female imagoes were allowed to lay eggs on the cut leaf for 20 hours and then removed. The acaricide of the present invention (wettable powder) produced in accordance with the method of Formulation Example 1 was diluted with water to a predetermined concentration, and the solution (3.5 ml) was applied on the just described disc (one concentration, two repetition) using a rotary sprayer (manufactured by Mizuho Rika). After 8 days of the treatment, the number of unhatched eggs and the number of hatched imagoes were examined to calculate egg-killing ratio (%).

[3] = test system: brown rice planthopper larvae; assay: Insecticidal effect on brown rice planthopper larvae; type: in vivo; details: 500 ppm, emulsifiable concentrate sprayed on rice seedling, 4th instar larvae, 5 days after treatment
Experimental: A sprouted rice seedling was set in a glass cylinder (3 cm in inner diameter×17 cm in length), and 5 brown rice planthopper larvae of 4th instar were released therein. A water-diluted solution (0.5 ml) of the insecticide of the present invention (emulsifiable concentrate) produced in accordance with the method of Formulation Example 3 was applied to the just described glass cylinder (one concentration, two repetition) using a sprayer (manufactured by Mizuho Rika). After 5 days of the treatment, mortality and agony of the larvae were examined, and insecticidal ratio (%) was calculated by defining the larva in agony as ½ dead larvae.

[4] = test system: adzuki bean weevil imagoes; assay: Insecticidal effect on adzuki bean weevil imagoes; type: in vivo; details: 500 ppm, emulsifiable concentrate sprayed, 25° C., 4 days after treatment
green peach aphid larvae = assay: Insecticidal effect on green peach aphid larvae; type: in vivo; details: 500 ppm, emulsifiable concentrate, radish leaf soaked, 25° C., 4th day after treatment
Experimental: A petiole part of a radish leaf was put into a screw bottle (capacity: 10 ml) filled with water, and 5 to 6 per one leaf of green peach aphid imagoes were inoculated. After the inoculation, the resulting bottle was put into a glass cylinder (3.5 cm in diameter and 15 cm in height, equipped with a mesh cover), and the green peach aphid imagoes were allowed to propagate in a constant temperature chamber at 25° C. for 3 days. After removal of the green peach aphid imagoes from the radish leaf, the resulting leaf was soaked (about 5 seconds) in a water-diluted solution of the insecticide (emulsifiable concentrate) of the present invention and then returned into the glass cylinder (one concentration, two repetition). The cylinder was kept in the constant temperature chamber of 25° C., and the number of aphid individuals on the radish leaf was examined on the 4th day after the treatment to calculate the insecticidal ratio (%) based on the result.

Compound	melting point	Insecticidal ratio (%) (common cutworm larvae)	other results
Cn1c(Nc2cc(C(F)(F)F)ccc2Cl)nc(C(F)(F)F)cc1=O [Compound No. 20, 2-(2-chloro-5-trifluoromethylphenyl)amino-3-methyl-6-trifluoromethyl-4(3H)-pyrimidinone]		100%	Insecticidal ratio (%) (diamondback moth larvae): 100%
CCCCn1c(Nc2cc(C(F)(F)F)ccc2Cl)nc(C(F)(F)F)cc1=O [Compound No. 22]			Acaricidal ratio (%) imagoes [1]: 100%; Acaricidal ratio (%) eggs [2]: 100%
Cn1c(Nc2cc(C(F)(F)F)ccc2C(F)(F)F)nc(C(F)(F)F)cc1=O [Compound No. 46, 2-{2,5-bis(trifluoromethyl)phenyl}amino-3-methyl-6-trifluoromethyl-4(3H)-pyrimidinone]		100%	Insecticidal ratio (%) [3]: 100%; Insecticidal ratio (%) (diamondback moth larvae): 100%; Acaricidal ratio (%) imagoes [1]: 100%; Acaricidal ratio (%) eggs [2]: 100%; Insecticidal ratio (%) [4]: 100%; Insecticidal ratio (%) (green peach aphid larvae): 100%
CC(C)Cn1c(Nc2cc(C(F)(F)F)ccc2C(F)(F)F)nc(C(F)(F)F)cc1=O [Compound No. 56, 2-{2,5-bis(trifluoromethyl)phenyl}amino-3-isobutyl-6-trifluoromethyl-4(3H)-pyrimidinone]		100%	Insecticidal ratio (%) (diamondback moth larvae): 100%; Acaricidal ratio (%) imagoes [1]: 100%; Acaricidal ratio (%) eggs [2]: 100%; Insecticidal ratio (%) [4]: 100%
CCC(C)n1c(Nc2cc(C(F)(F)F)ccc2C(F)(F)F)nc(C(F)(F)F)c(Cl)c1=O (stereo not shown) [Compound No. 59, 2-{2,5-bis(trifluoromethyl)phenyl}amino-3-sec-butyl-5-chloro-6-trifluoromethyl-4(3H)-pyrimidinone]	133 to 135 °C		
O=c1cc(C(F)(F)F)nc(Nc2cc(C(F)(F)F)ccc2C(F)(F)F)n1C1CCCCC1 [Compound No. 64, 2-{2,5-bis(trifluoromethyl)phenyl}amino-3-cyclohexyl-6-trifluoromethyl-4(3H)-pyrimidinone]	154 to 156 °C		
O=c1c(Cl)c(C(F)(F)F)nc(Nc2cc(C(F)(F)F)ccc2C(F)(F)F)n1C1CCCCC1 [Compound No. 65, 2-{2,5-bis(trifluoromethyl)phenyl}amino-5-chloro-3-cyclohexyl-6-trifluoromethyl-4(3H)-pyrimidinone]	181 to 183 °C		
CC(C)Cn1c(Nc2cc(C(F)(F)F)ccc2Cl)nc(C(F)(F)F)cc1=O [compound 23, 2-(2-chloro-5-trifluoromethylphenyl)amino-3-isobutyl-6-trifluoromethyl-4(3H)-pyrimidinone]		100%	
Cn1c(Nc2cc(C(F)(F)F)cc(C(F)(F)F)c2)nc(C(F)(F)F)cc1=O [compound 69, 2-{3,5-bis(trifluoromethyl)phenyl}amino-3-methyl-6-trifluoromethyl-4(3H)-pyrimidinone]		100%	Insecticidal ratio (%) (diamondback moth larvae): 100%

Continued, in another order:

melting point	Compound	Insecticidal ratio (%) (common cutworm larvae)	other results
167 to 168 °C	CCn1c(Nc2cc(Cl)ccc2Cl)nc(C(F)(F)F)cc1=O		
124 °C	CCn1c(Nc2ccc(C(F)(F)F)cc2C(F)(F)F)nc(C(F)(F)F)c(Cl)c1=O [Compound No. 34, 2-{2,4-bis(trifluoromethyl)phenyl}amino-5-chloro-3-ethyl-6-trifluoromethyl-4(3H)-pyrimidinone]		
173 to 175 °C	CCn1c(Nc2cc(C(F)(F)F)ccc2C(F)(F)F)nc(C(F)(F)F)cc1=O [Compound No. 47, 2-{2,5-bis(trifluoromethyl)phenyl}amino-3-ethyl-6-trifluoromethyl-4(3H)-pyrimidinone]		
124 to 126 °C	CCCn1c(Nc2cc(C(F)(F)F)ccc2C(F)(F)F)nc(C(F)(F)F)c(Cl)c1=O [Compound No. 51, 2-{2,5-bis(trifluoromethyl)phenyl}amino-5-chloro-3-propyl-6-trifluoromethyl-4(3H)-pyrimidinone]		
165 to 167 °C	CCC(C)n1c(Nc2cc(C(F)(F)F)ccc2C(F)(F)F)nc(C(F)(F)F)cc1=O (stereo not shown) [Compound No. 58, 2-{2,5-bis(trifluoromethyl)phenyl}amino-3-sec-butyl-6-trifluoromethyl-4(3H)-pyrimidinone]		
116 to 118 °C	C=CCn1c(Nc2cc(C(F)(F)F)ccc2C(F)(F)F)nc(C(F)(F)F)cc1=O [Compound No. 66, 3-allyl-2-{2,5-bis(trifluoromethyl)phenyl}amino-6-trifluoromethyl-4(3H)pyrimidinone]		
